Experimental data from patent publication US11713306B2, “5-substituted difluoropiperidine compounds with blood-brain barrier penetrable capability” (Wayshine Biopharm Holding Limited, priority 2018, dated 2023).

target: FYN (Homo sapiens (Human), UniProt P06241); assay: Kinase inhibition assay (Caliper, FAM-labeled peptide substrate); assay type: biochemical
Method: 2.5 times of the kinase (VEGFR2 or EGFR or FYN) buffer solution was added to the compound diluted in equal concentration in the 384-well plate and incubated at 22-27° C. for 10 minutes, then 2.5 times of the FAM-labeled peptide substrate and ATP buffer solution were added therein and incubated at 28° C., and then the stop buffer solution was added to stop the reaction. The data was read by Caliper and the following formula was used to calculate the IC50 inhibition: Percent inhibition=(max-conversion)/(max-min)*100. Staurosporine was used as a control. In kinase inhibition assays, some of the compounds of the present invention are effective in inhibiting VEGFR2/FYN/EGFR, so they have the potential for treating or preventing cancer or central nervous system diseases (Table 1).

Chain of FYN (P06241 whole entry): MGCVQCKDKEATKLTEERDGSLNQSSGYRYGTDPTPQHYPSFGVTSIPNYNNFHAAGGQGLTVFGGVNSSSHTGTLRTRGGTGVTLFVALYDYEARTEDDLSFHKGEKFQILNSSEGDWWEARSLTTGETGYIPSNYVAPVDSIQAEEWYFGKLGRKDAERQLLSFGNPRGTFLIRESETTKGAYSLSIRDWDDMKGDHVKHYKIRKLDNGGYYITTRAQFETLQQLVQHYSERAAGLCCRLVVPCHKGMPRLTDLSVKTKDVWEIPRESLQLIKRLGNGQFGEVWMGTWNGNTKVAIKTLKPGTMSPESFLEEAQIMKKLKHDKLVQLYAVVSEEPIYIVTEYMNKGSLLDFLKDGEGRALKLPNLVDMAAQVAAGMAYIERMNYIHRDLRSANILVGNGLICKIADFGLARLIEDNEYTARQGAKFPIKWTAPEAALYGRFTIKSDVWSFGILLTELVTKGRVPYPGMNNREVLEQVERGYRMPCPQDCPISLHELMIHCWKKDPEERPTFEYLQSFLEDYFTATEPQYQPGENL

| SMILES | IC50 |
| --- | --- |
| CCOc1cc(O[C@H]2CCN(C)CC2(F)F)c2c(Nc3c(Cl)ccc4c3OCO4)ncnc2c1 [Compound 41, (S)—N-(5-chlorobenzo[d][1,3]dioxolcyclopenten-4-yl)-5-((3,3-difluoro-1-methylpiperidin-4-yl)oxy)-7-ethoxyquinazolin-4-amine] | < 100 nM |
| CCOc1cc(OC2CCN(C)CC2(F)F)c2c(Nc3c(F)ccc4c3OCO4)ncnc2c1 (racemic) [Compound 6, (R/S)—N-(5-fluorobenzo[d][1,3]dioxolcyclopenten-4-yl)-5-((3,3-difluoro-1-methylpiperidin-4-yl)oxy)-7-ethoxyquinazolin-4-amine] | < 100 nM |
| COc1cc(OC2CCN(C)CC2(F)F)c2c(Nc3c(Cl)ccc4c3OCO4)ncnc2c1 (racemic) [Compound 12, (R/S)—N-(5-chlorobenzo[d] [1,3]dioxolcyclopenten-4-yl)-5-((3,3-difluoro-1-methylpiperidin-4-yl)oxy)-7-deuterated methoxyquinazolin-4-amine] | < 100 nM |
| COc1cc(O[C@H]2CCN(C)CC2(F)F)c2c(Nc3c(Cl)ccc4c3OCO4)ncnc2c1 [Compound 36, (S)—N-(5-chlorobenzo[d][1,3]dioxolcyclopenten-4-yl)-5-((3,3-difluoro-1-methylpiperidin-4-yl)oxy)-7-methoxyquinazolin-4-amine] | < 100 nM |
| CCOc1cc(OC2CCN(C)CC2(F)F)c2c(Nc3c(Cl)ccc4c3OCO4)ncnc2c1 (racemic) [Compound 9, (R/S)—N-(5-chlorobenzo[d][1,3]dioxolcyclopenten-4-yl)-5-((3,3-difluoro-1-methylpiperidin-4-yl)oxy)-7-ethoxyquinazolin-4-amine] | < 100 nM |
| COc1cc(OC2CCN(C)CC2(F)F)c2c(Nc3c(Cl)ccc4c3OCO4)ncnc2c1 (racemic) [Compound 4, (R/S)—N-(5-chlorobenzo[d][1,3]dioxolcyclopenten-4-yl)-5-((3,3-difluoro-1-methylpiperidin-4-yl)oxy)-7-methoxyquinazolin-4-amine] | < 100 nM |
| COc1cc(OC2CCN(C3COC3)CC2(F)F)c2c(Nc3c(F)ccc4c3OCO4)ncnc2c1 (racemic) [Compound 13, (R/S)-5-((3,3-difluoro-1-(oxetane-3-yl)piperidin-4-yl)oxy)-N-(5-fluorobenzo[d][1,3]dioxolcyclopenten-4-yl)-7-methoxyquinazolin-4-amine] | < 100 nM |
| COc1cc(O[C@@H]2CCN(C)CC2(F)F)c2c(Nc3c(Cl)ccc4c3OCO4)ncnc2c1 [Compound 28, (R)—N-(5-chlorobenzo[d] [1,3]dioxolcyclopenten-4-yl)-5-((3,3-difluoro-1-methylpiperidin-4-yl)oxy)-7-deuterated methoxyquinazolin-4-amine] | < 100 nM |
| COc1cc(OC2CCN(C)CC2(F)F)c2c(Nc3c(F)ccc4c3OCO4)ncnc2c1 (racemic) [Compound 5, (R/S)—N-(5-fluorobenzo[d][1,3]dioxolcyclopenten-4-yl)-5-((3,3-difluoro-1-methylpiperidin-4-yl)oxy)-7-methoxyquinazolin-4-amine] | < 100 nM |
| COc1cc(O[C@H]2CCN(C)CC2(F)F)c2c(Nc3c(Cl)ccc4c3OCO4)ncnc2c1 [Compound 44, (S)—N-(5-chlorobenzo[d] [1,3]dioxolcyclopenten-4-yl)-5-((3,3-difluoro-1-methylpiperidin-4-yl)oxy)-7-deuterated methoxyquinazolin-4-amine] | < 100 nM |
| COc1cc(O[C@@H]2CCN(C)CC2(F)F)c2c(Nc3c(Cl)ccc4c3OCO4)ncnc2c1 [Compound 20, (R)—N-(5-chlorobenzo[d][1,3]dioxolcyclopenten-4-yl)-5-((3,3-difluoro-1-methylpiperidin-4-yl)oxy)-7-methoxyquinazolin-4-amine] | < 100 nM |
| COc1cc(O[C@H]2CCN(C3COC3)CC2(F)F)c2c(Nc3c(F)ccc4c3OCO4)ncnc2c1 [Compound 45, (S)-5-((3,3-difluoro-1-(oxetane-3-yl)piperidin-4-yl)oxy)-N-(5-fluorobenzo[d] [1,3]dioxolcyclopenten-4-yl)-7-methoxyquinazolin-4-amine] | < 100 nM |
| COc1cc(O[C@H]2CCN(C(C)C)CC2(F)F)c2c(Nc3c(F)ccc4c3OCO4)ncnc2c1 [Compound 47, (S)-5-((3,3-difluoro-1-isopropylpiperidin-4-yl)oxy)-N-(5-fluorobenzo[d][1,3]dioxolcyclopenten-4-yl)-7-methoxyquinazolin-4-amine] | < 100 nM |
| CCN1CC[C@H](Oc2cc(OC)cc3ncnc(Nc4c(F)ccc5c4OCO5)c23)C(F)(F)C1 [Compound 42, (S)-5-((1-ethyl-3,3-difluoropiperidin-4-yl)oxy)-N-(5-fluorobenzo[d] [1,3]dioxolcyclopenten-4-yl)-7-methoxyquinazolin-4-amine] | < 100 nM |
| COc1cc(OC2CCN(C)CC2(F)F)c2c(Nc3c(F)ccc4c3OCO4)ncnc2c1 (racemic) [Compound 7, (R/S)—N-(5-fluorobenzo[d][1,3]dioxolcyclopenten-4-yl)-5-((3,3-difluoro-1-methylpiperidin-4-yl)oxy)-7-deuterated methoxyquinazolin-4-amine] | < 100 nM |
| COc1cc(OC2CCN(C)CC2(F)F)c2c(Nc3cc(OC)c(Cl)cc3F)ncnc2c1 (racemic) [Compound 8, (R/S)—N-(4-chloro-2-fluoro-5-methoxyphenyl)-5-((3,3-difluoro-1-methylpiperidin-4-yl)oxy)-7-methoxyquinazolin-4-amine] | < 100 nM |
| CCOc1cc(O[C@@H]2CCN(C)CC2(F)F)c2c(Nc3c(Cl)ccc4c3OCO4)ncnc2c1 [Compound 25, (R)—N-(5-chlorobenzo[d][1,3]dioxolcyclopenten-4-yl)-5-((3,3-difluoro-1-methylpiperidin-4-yl)oxy)-7-ethoxyquinazolin-4-amine] | < 100 nM |
| COc1cc(O[C@H]2CCN(C)CC2(F)F)c2c(Nc3c(F)ccc4c3OCO4)ncnc2c1 [Compound 39, (S)—N-(5-fluorobenzo[d][1,3]dioxolcyclopenten-4-yl)-5-((3,3-difluoro-1-methylpiperidin-4-yl)oxy)-7-deuterated methoxyquinazolin-4-amine] | < 100 nM |
| COc1cc(O[C@H]2CCN(C3COC3)CC2(F)F)c2c(Nc3c(Cl)ccc4c3OCO4)ncnc2c1 [Compound 46, (S)-5-((3,3-difluoro-1-(oxetane-3-yl)piperidin-4-yl)oxy)-N-(5-chlorobenzo[d][1,3]dioxolcyclopenten-4-yl)-7-methoxyquinazolin-4-amine] | < 100 nM |
| CCN1CC[C@@H](Oc2cc(OC)cc3ncnc(Nc4c(F)ccc5c4OCO5)c23)C(F)(F)C1 [Compound 26, (R)-5-((1-ethyl-3,3-difluoropiperidin-4-yl)oxy)-N-(5-fluorobenzo[d] [1,3]dioxolcyclopenten-4-yl)-7-methoxyquinazolin-4-amine] | < 100 nM |
| COc1cc(OC2CCN(C3COC3)CC2(F)F)c2c(Nc3c(Cl)ccc4c3OCO4)ncnc2c1 (racemic) [Compound 14, (R/S)-5-((3,3-difluoro-1-(oxetane-3-yl)piperidin-4-yl)oxy)-N-(5-chlorobenzo[d][1,3]dioxolcyclopenten-4-yl)-7-methoxyquinazolin-4-amine] | < 100 nM |
| COc1cc(O[C@@H]2CCN(C)CC2(F)F)c2c(Nc3c(F)ccc4c3OCO4)ncnc2c1 [Compound 23, (R)—N-(5-fluorobenzo[d][1,3]dioxolcyclopenten-4-yl)-5-((3,3-difluoro-1-methylpiperidin-4-yl)oxy)-7-deuterated methoxyquinazolin-4-amine] | < 100 nM |
| COc1cc(O[C@@H]2CCN(C)CC2(F)F)c2c(Nc3cc(OC)c(Cl)cc3F)ncnc2c1 [Compound 24, (R)—N-(4-chloro-2-fluoro-5-methoxyphenyl)-5-((3,3-difluoro-1-methylpiperidin-4-yl)oxy)-7-methoxyquinazolin-4-amine] | < 100 nM |
| COc1cc(O[C@H]2CCN(C)CC2(F)F)c2c(Nc3cc(OC)c(Cl)cc3F)ncnc2c1 [Compound 40, (S)—N-(4-chloro-2-fluoro-5-methoxyphenyl)-5-((3,3-difluoro-1-methylpiperidin-4-yl)oxy)-7-methoxyquinazolin-4-amine] | < 100 nM |
| COc1cc(O[C@H]2CCN(C)CC2(F)F)c2c(Nc3c(F)ccc4c3OCO4)ncnc2c1 [Compound 37, (S)—N-(5-fluorobenzo[d][1,3]dioxolcyclopenten-4-yl)-5-((3,3-difluoro-1-methylpiperidin-4-yl)oxy)-7-methoxyquinazolin-4-amine] | < 100 nM |
| CCOc1cc(O[C@@H]2CCN(C)CC2(F)F)c2c(Nc3c(F)ccc4c3OCO4)ncnc2c1 [Compound 22, (R)—N-(5-fluorobenzo[d][1,3]dioxolcyclopenten-4-yl)-5-((3,3-difluoro-1-methylpiperidin-4-yl)oxy)-7-ethoxyquinazolin-4-amine] | < 100 nM |
| CCOc1cc(O[C@H]2CCN(C)CC2(F)F)c2c(Nc3c(F)ccc4c3OCO4)ncnc2c1 [Compound 38, (S)—N-(5-fluorobenzo[d][1,3]dioxolcyclopenten-4-yl)-5-((3,3-difluoro-1-methylpiperidin-4-yl)oxy)-7-ethoxyquinazolin-4-amine] | < 100 nM |
| COc1cc(O[C@@H]2CCN(C(C)C)CC2(F)F)c2c(Nc3c(F)ccc4c3OCO4)ncnc2c1 [Compound 31, (R)-5-((3,3-difluoro-1-isopropylpiperidin-4-yl)oxy)-N-(5-fluorobenzo[d] [1,3]dioxolcyclopenten-4-yl)-7-methoxyquinazolin-4-amine] | < 100 nM |
| COc1cc(OC2CCN(C(C)C)CC2(F)F)c2c(Nc3c(F)ccc4c3OCO4)ncnc2c1 (racemic) [Compound 15, (R/S)-5-((3,3-difluoro-1-isopropylpiperidin-4-yl)oxy)-N-(5-fluorobenzo[d][1,3]dioxolcyclopenten-4-yl)-7-methoxyquinazolin-4-amine] | < 100 nM |
